Source: patent US9271978B2 (Zenith Epigenetics Corp., priority 2012, dated 2016)

Key:
[1] = molecular target: T1, Brd4 bromodomain 1 (BRD4(1)) (Homo sapiens, UniProt O60885); experiment: Inhibition of tetra-acetylated histone H4 binding to Brd4 bromodomain 1 (TR-FRET); design: key: Active: Compounds with an IC50 value less than 30 μM were deemed to be active.; Not Active: Compounds with an IC50 value less than 30 μM were deemed to be active; settings: tetra-acetylated histone H4 peptide, active = IC50 <30 μM
T1 construct: Illustrative results with the first bromodomain of Brd4; made in house; host or cells: E. coli BL21 (DE3)
Outline: (§1)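 N-terminally His-tagged bromodomains (200 nM), expressed in E. coli, were incubated with biotinylated tetra-acetylated histone H4 peptide (25-50 nM), Eu-cryptate streptavidin and XL665 anti-His antibody in HEPES pH 7.4 buffer with KF, 0.2% DMSO, 2 h at room temperature. Inhibition read as decreased 665/620 nm TR-FRET; IC50 from dose-response curves.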

[2] = molecular target: T2, second bromodomain of Brd2 (BRD2(2)) (Homo sapiens, UniProt P25440); experiment: Inhibition of tetra-acetylated histone H4 binding to Brd2 bromodomain 2 (TR-FRET); design: key: Active: Compounds with an IC50 value less than 30 μM were deemed to be active.; Not Active: Compounds with an IC50 value less than 30 μM were deemed to be active; settings: tetra-acetylated histone H4 peptide, active = IC50 <30 μM
T2 construct: made in house; host or cells: E. coli BL21 (DE3)
T2 sequence (P25440 344-453 limits assumed): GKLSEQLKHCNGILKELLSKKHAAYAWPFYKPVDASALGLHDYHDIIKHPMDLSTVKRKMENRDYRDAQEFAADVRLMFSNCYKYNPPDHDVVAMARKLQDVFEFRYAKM
Outline: as §1

[3] = system: c-myc; experiment: Inhibition of c-myc expression in MV4-11 cells (mRNA, real-time PCR); format: cell-based; design: key: Active: Compounds with an IC50 value less than 30 μM were deemed to be active.; Not Active: Compounds with an IC50 value less than 30 μM were deemed to be active; settings: Human AML MV4-11 cells, 3 h incubation
Outline: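 MV4-11 cells (2.5×10^4) treated with compound or 0.1% DMSO for 3 h at 37 °C. c-myc mRNA measured by RT real-time PCR duplexed with cyclophilin. IC50 from dose–response curve.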

[4] = system: human AML MV-4-11 (CRL-9591) cells; experiment: Inhibition of cell proliferation in MV4-11 cells; format: cell-based; design: key: Active: Compounds with an IC50 value less than 30 μM were deemed to be active.; Not Active: Compounds with an IC50 value less than 30 μM were deemed to be active; settings: human AML MV-4-11 cells, 72 h; active = IC50 <30 μM
Outline: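 Exponentially growing MV-4-11 cells (5×10^4/well) were treated immediately with two-fold dilutions of compound from 30 μM to 0.2 μM, in triplicate, for 72 h at 37° C, 5% CO2. Viability was measured by MTS absorbance at 490 nm after 3–4 h. Proliferation relative to DMSO after blank correction gave IC50.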

[5] = system: hIL-6 mRNA; experiment: Inhibition of hIL-6 mRNA transcription in U937 cells; format: cell-based, human; design: key: Active: Compounds with an IC50 value less than 30 μM were deemed to be active.; Not Active: Compounds with an IC50 value less than 30 μM were deemed to be active; settings: LPS stimulation, active = IC50 <30 μM
Outline: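 U937 cells differentiated 3 days with 60 ng/mL PMA, pretreated 1 h with compound, then stimulated with 1 ug/mL E. coli LPS for 3 h at 37° C. hIL-6 mRNA quantified by one-step qRT-PCR, Ct normalized to internal control, expressed as fold induction relative to control.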

[6] = system: ApoA-I mRNA; experiment: Up-regulation of hApoA-1 mRNA transcription in Huh7 cells; format: cell-based, human; design: key: Active: Compounds with an EC170 value less than 30 μM were deemed to be active; settings: 48 h treatment, ApoA-I mRNA by real-time PCR, Active = EC170 less than 30 μM
Outline: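 Huh7 cells treated with compound for 48 h. ApoA-I mRNA was then quantified in captured mRNA by one-step real-time RT-PCR. Fold induction calculated from Ct values relative to the matching DMSO control; EC170 is the concentration for 170% of control expression.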

SMILES | FRET activity (IC50 <30 μM) BRD4(1) [1] | FRET activity (IC50 <30 μM) BRD2(2) [2] | c-myc activity (IC50 <30 μM) [3] | Cell Proliferation activity (IC50 <30 μM) [4] | IL-6 activity (IC50 <30 μM) [5] | ApoA-1 activity (EC170 <30 μM) [6]
CNc1cc(-c2c(C)noc2C)cn(Cc2ccccc2)c1=O [Example 75, 1-Benzyl-5-(3,5-dimethylisoxazol-4-yl)-3-(methylamino)pyridin-2(1H)-one] | Active | Active | Active | Active | Active | Active
COc1cc(-c2ccc(=O)n(Cc3ccc(NC(C)=O)cc3)n2)cc(OC)c1OC [Example 82, N-(4-((6-Oxo-3-(3,4,5-trimethoxyphenyl)pyridazin-1(6H)-yl)methyl)phenyl)acetamide] | Active | Active | Not Active | Not Active | Active | Active
COc1cc(-c2ccc(=O)n(Cc3ccccc3)n2)ccc1O [Example 83, 2-Benzyl-6-(4-hydroxy-3-methoxyphenyl)pyridazin-3(2H)-one] | Active | Active | Not Active | Active | Active | Active
COc1ccc(Nc2ccc(=O)n(Cc3ccccc3)n2)nc1OC [Example 99, 2-Benzyl-6-((5,6-dimethoxypyridin-2-yl)amino)pyridazin-3(2H)-one] | Active | Active | Active | Not Active | Active | Active
Cc1noc(C)c1-c1ccc(=O)n(C(C)c2cccc(F)c2)c1 (stereo not drawn) [Example 104, 5-(3,5-Dimethylisoxazol-4-yl)-1-(1-(3-fluorophenyl)ethyl)pyridin-2(1H)-one] | Active | Active | Active | Active | Active | Active
Cc1noc(C)c1-c1ccc(=O)n(C(C)c2ccc(Cl)cc2)c1 (stereo not drawn) [Example 105, 1-(1-(4-Chlorophenyl)ethyl)-5-(3,5-dimethylisoxazol-4-yl)pyridin-2(1H)-one] | Active | Active | Active | Active | Active | Active
Cc1noc(C)c1-c1ccc(=O)n([C@H](C)c2ccccc2)n1 [Example 108, (R)-6-(3,5-Dimethylisoxazol-4-yl)-2-(1-phenylethyl)pyridazin-3(2H)-one] | Active | Active | Active | Active | Active | Active
Cc1noc(C)c1-c1ccc(=O)n([C@@H](C)c2ccccc2)n1 [Example 109, (S)-6-(3,5-Dimethylisoxazol-4-yl)-2-(1-phenylethyl)pyridazin-3(2H)-one] | Active | Active | Active | Active | Active | Active
COc1ccc(Cn2nc(-c3cc(OC)c(OC)c(OC)c3)ccc2=O)cc1 [Example 117, 2-(4-Methoxybenzyl)-6-(3,4,5-trimethoxyphenyl)pyridazin-3(2H)-one] | Active | Active | Not Active | Not Active | Active | Active
COc1cc(-c2ccc(=O)n(Cc3ccccc3C#N)n2)cc(OC)c1OC [Example 118, 2-((6-Oxo-3-(3,4,5-trimethoxyphenyl)pyridazin-1(6H)-yl)methyl)benzonitrile] | Active | Active | Not Active | Active | Active | Active
COc1cccc(Cn2nc(-c3cc(OC)c(OC)c(OC)c3)ccc2=O)c1 [Example 119, 2-(3-Methoxybenzyl)-6-(3,4,5-trimethoxyphenyl)pyridazin-3(2H)-one] | Active | Active | Not Active | Active | Active | Active
Cc1noc(C)c1-c1ccc(=O)n(C(C)c2ccccc2)c1 (stereo not drawn) [Example 125, 5-(3,5-Dimethylisoxazol-4-yl)-1-(1-phenylethyl)pyridin-2(1H)-one] | Active | Active | Active | Active | Active | Active
Cc1noc(C)c1-c1ccc(=O)n(Cc2ccc(F)cc2)c1 [Example 132, 5-(3,5-Dimethylisoxazol-4-yl)-1-(4-fluorobenzyl)pyridin-2(1H)-one] | Active | Active | Active | Active | Active | Active
Cc1noc(C)c1-c1ccc(=O)n(Cc2ccc3[nH]cnc3c2)c1 [Example 146, 1-((1H-benzo[d]imidazol-5-yl)methyl)-5-(3,5-dimethylisoxazol-4-yl)pyridin-2(1H)-one] | Active | Active | Active | Not Active | Active | Active
